{"source": "patent US11090389B2", "about": "“Mitochondrially targeted PARP inhibitor, and uses thereof” (University of Pittsburgh—Of the Commonwealth System of …, priority 2016, dated 2021)", "key": {"primary cortical neurons [1]": {"test_system": "primary cortical neurons", "assay": "Oxygen-glucose deprivation (OGD) in primary cortical neurons, LDH release", "format": "cell-based, rat", "description": "(§1) To model ischemia-reperfusion in vitro, culture medium was replaced with a pre-equilibrated low glucose (0.5 mM) medium. Neurons were transferred into a sealed hypoxic chamber (Coy Laboratory Products Inc., Grass Lake, Mich.) set to an atmosphere of 95% N2 with 5% CO2 at 37° C. for 2 h. After OGD neurons were removed from the chamber and returned to the incubator.\nTo determine whether mitochondria-targeting XJB-veliparib can promote neuronal survival in ischemia-like conditions in vitro, primary cortical neurons at 12 DIV were subjected to OGD. Cultured neurons were exposed to a hypoxic and glucose-depleted environment for 2 h, followed by normal culture conditions for 24 h to mimic ischemia/reperfusion injury. […] Specifically, 10 nM XJB-veliparib reduced cell death by 67% (LDH release 12.4±3.1% vs. 38.0±2.5%, 10 nM XJB-veliparib vs. vehicle; mean±SD; P<0.05)."}, "HT22 cells": {"test_system": "HT22 cells", "assay": "Glutamate-induced ferroptotic cell death in HT22 cells, LDH release", "format": "cell-based, mouse", "conditions": "5 mM glutamate; for effect on glutamate-induced ferroptosis: LDH release at 24 h", "description": "HT22 cells were cultured at 37° C. in Dulbecco's modified Eagle's medium (DMEM) (Invitrogen Inc., Carlsbad, Calif.) supplemented with 10% fetal bovine serum (FBS) (Thermo Fisher Scientific, San Jose, Calif.) and 1% penicillin-streptomycin (ATCC, Manassas, Va.) in an atmosphere containing 5% CO2. Cells were cultured for 24 to 48 hr before use."}, "primary cortical neurons [2]": {"test_system": "primary cortical neurons", "assay": "Mitochondrial and cytosolic NAD+ concentration in primary cortical neurons after OGD", "format": "cell-based, rat", "conditions": "for mitochondrial NAD+ stores after OGD: 10 nM before OGD, measured 24 h after OGD", "description": "FIG. 8. Mitochondrial and cytosolic NAD^+ concentration in primary cortical neurons after OGD. […] NAD+ concentration measured 24 h after OGD. Assay performed in duplicate.\nas §1"}, "PARP1 [3]": {"molecular_target": "T1, PARP1 (Homo sapiens, UniProt P09874)", "T1 sequence (P09874 whole entry)": "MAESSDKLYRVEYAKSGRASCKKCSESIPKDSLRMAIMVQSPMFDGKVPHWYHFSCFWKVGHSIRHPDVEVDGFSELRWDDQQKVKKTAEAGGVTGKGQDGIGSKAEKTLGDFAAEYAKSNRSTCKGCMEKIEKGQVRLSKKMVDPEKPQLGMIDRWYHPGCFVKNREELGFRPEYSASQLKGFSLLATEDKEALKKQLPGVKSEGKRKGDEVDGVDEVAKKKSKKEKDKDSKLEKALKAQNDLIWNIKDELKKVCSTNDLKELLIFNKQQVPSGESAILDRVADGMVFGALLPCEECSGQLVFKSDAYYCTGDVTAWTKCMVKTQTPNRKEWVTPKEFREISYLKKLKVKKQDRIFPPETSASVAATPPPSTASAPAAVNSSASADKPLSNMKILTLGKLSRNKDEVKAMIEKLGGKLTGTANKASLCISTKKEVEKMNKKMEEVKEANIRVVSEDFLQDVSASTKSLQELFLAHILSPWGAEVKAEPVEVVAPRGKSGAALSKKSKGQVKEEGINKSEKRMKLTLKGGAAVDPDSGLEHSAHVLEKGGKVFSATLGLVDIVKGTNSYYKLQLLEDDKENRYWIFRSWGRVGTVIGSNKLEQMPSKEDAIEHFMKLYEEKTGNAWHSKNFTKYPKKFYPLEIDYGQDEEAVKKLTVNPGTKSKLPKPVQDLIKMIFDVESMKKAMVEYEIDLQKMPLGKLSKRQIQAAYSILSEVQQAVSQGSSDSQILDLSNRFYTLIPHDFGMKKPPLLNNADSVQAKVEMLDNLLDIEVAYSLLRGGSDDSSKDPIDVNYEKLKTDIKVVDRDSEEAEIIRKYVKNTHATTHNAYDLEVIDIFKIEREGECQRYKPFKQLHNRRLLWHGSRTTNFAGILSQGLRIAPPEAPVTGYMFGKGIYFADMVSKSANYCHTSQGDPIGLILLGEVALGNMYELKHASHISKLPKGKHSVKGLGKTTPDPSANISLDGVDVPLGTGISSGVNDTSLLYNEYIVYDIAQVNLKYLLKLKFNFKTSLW", "assay": "PARP1 activity, commercial assay (Trevigen), histone-coated wells with active PARP1 enzyme and NAD+", "format": "biochemical", "conditions": "active PARP1 enzyme; triplicate; FIG. 4", "description": "The capacity to inhibit PARP1 was determined using a commercial assay (Trevigen, Gaithersburg, Md.) as per manufacturer's direction."}, "PARP1 [4]": {"molecular_target": "T1, PARP1", "assay": "PARP1 inhibitory capacity of mitochondria-enriched fractions spiked with active PARP1 enzyme", "format": "biochemical", "conditions": "triplicate"}, "primary cortical neurons [5]": {"test_system": "primary cortical neurons", "assay": "Cellular localization of poly(ADP-ribose) polymers after OGD (immunofluorescence, confocal and STED microscopy)", "format": "cell-based, rat", "conditions": "10 nM, OGD 2 h; for PAR immunofluorescence after OGD (confocal): triplicate", "description": "Neurons grown on poly-D-lysine coated glass coverslips were fixed in 2% paraformaldehyde and permeabilized with TritonX-100. Coverslips were then incubated in a 1:200 dilution of mouse monoclonal antibody against PAR (SA216, ENzo Life Sciences, Inc., Farmingdale, N.Y.) and an antibody against TOMM20 (Abcam, Cambridge, Mass.) followed by incubation in the appropriate secondary antibodies. Cell nuclei were labelled with 4′,6 diamidino-2-phenylindole (DAPI) for standard confocal microscopy or DRAQ5 (both from ThermoFisher Scientific, Waltham, Mass.) for STED microscopy. Images were collected using an Olympus Fluoview 1000 confocal microscope (Olympus Corporation of the Americas, Center Valley, Pa.).\nFor STED imaging a Leica TCS SP8 super resolution STED microscope with a pulsed white light laser and AOBS detection system was used (Leica Microsystems, Wetzlar, Germany). Images were collected using the 775 nm STED laser line with 30% 3D STED using the Leica STED WHITE oil objective lens (HC PL APO 100×/1.40 OIL) with a 200 Hz scan speed and 2× line averaging. Pixel size was set to 45 nm/pixel, step size was set to […], and pinhole was set at 132.8 μm (0.875 AU). TOMM20 was visualized using Alexa Fluor 555, exciting at 553 nm and detecting between 558-599 nm and temporally gate between […]. PAR was visualized with Alexa Fluor 594, exciting at 598 nm and detecting between 603-666 nm and temporally gated between 0.3-6.0 nsec. DRAQ5 (ThermoFisher Scientific, Waltham, Mass.) was excited at 662 and detected between 667 to 780 nm and temporally gated between 0.3-6.0 nsec. Channels were collected between stacks, sequentially.\nThe cellular localization of poly(ADP-ribose) (PAR) polymers, a footprint of PARP activation, was examined in primary cortical neurons after OGD using immunohistochemistry and confocal microscopy.\nTo evaluate the impact of XJB-veliparib on mitochondrial structure after OGD, we used stimulation emission depletion (STED) microscopy and immunohistochemistry. Primary rat cortical neurons were treated with 10 nM XJB-veliparib or vehicle and then exposed to OGD for 2 h."}, "[6]": {"test_system": "mouse embryo fibroblasts (MEF)", "assay": "IR-induced cell death in mouse embryo fibroblasts, Annexin V/PI flow cytometry", "format": "cell-based", "conditions": "for survival after IR: 10, 20 μM for 30 min prior to 10 Gy IR, survival at 48 h, mean±SD, vehicle 68.4%±2.2", "description": "MEF cells were treated with 10, 20 μM XJB-veliparib for 30 min prior to 10 Gy IR (309 R/min, Cs137 source), media was changed to drugless media 4 h post-IR. Survival was assessed at 48 h by Annexin V-FTIC/PI flow cytometry. […] Mean±SD, *p<0.05, ****p<0.0001."}, "[7]": {"test_system": "mouse embryo fibroblasts (MEF)", "assay": "γ-irradiation-induced mitochondrial DNA damage in MEFs (qPCR)", "format": "cell-based", "conditions": "20 μM for 30 min prior to 10 Gy IR", "description": "PARylation of mtDNA repair enzymes, polymerase-γ and exo/endonucleaseG, by mt-PARP1 is thought interfere with normal mtDNA repair. […] Cells were harvested and DNA extracted 4 and 24 h post-IR. […] ANOVA, *p<0.05, **p<0.01."}, "[8]": {"test_system": "rat primary cortical neurons", "assay": "Cytotoxicity in rat primary cortical neurons, LDH release at 24 h", "conditions": "for concentration at which neurotoxicity (defined as >10% cell death) was seen: n=6/group", "description": "Cytotoxicity was assessed by LDH release from dying neurons at 24 h."}, "[9]": {"assay": "Mitochondrial enrichment: LC-MS quantification in mitochondria- and nuclear-enriched fractions of neurons", "format": "in vitro ADME, rat", "conditions": "neurons exposed to 100 nM for 24 h; mean±SD; n=3", "description": "Water (150 μL) was added and the solution was vortexed (15 sec) and set aside to equilibrate at room temperature (30 min). The resulting suspension was placed in an Eppendorf Centrifuge 5702 (4400 rpm, 20° C.) for 12 min. The organic layer was extracted and filtered through a 0.45 μm filter for analysis.\nThe concentration was reported as pM concentration of XJB-Veliparib per 10 μg of protein with corresponding standard deviation values.\nTo verify mitochondrial enrichment, rat primary cortical neurons were exposed to 100 nM XJB-veliparib for 24 h. Mitochondria- and nuclear-enriched subcellular fractions were obtained and verified by western blot using antibodies against the cytochrome oxidase subunit Vα (COX Vα) and histone H3, respectively (FIG. 6A). In mitochondria-enriched fractions, the LCMS analysis of XJB-veliparib indicated a concentration of 116±55 pmol/10 μg protein compared with 29±27 pmol/10 μg protein in nuclear-enriched fractions (FIG. 6B; mean±standard deviation [SD]; n=3 independent experiments)."}}}
{"smiles": "CC(C)C[C@@H](/C=C/[C@H](Cc1ccccc1)C(=O)N1CCC[C@H]1C(=O)N[C@H](C(=O)N[C@@H](CCCNC(=O)OCc1ccccc1)C(=O)NCCCNC(=O)c1cccc2[nH]c([C@]3(C)CCCN3)nc12)C(C)C)NC(=O)OC(C)(C)C", "note": "[XJB-Veliparib, tert-Butyl ((4S,7S, E)-7-benzyl-2-methyl-8-((S)-2-(((S)-3-methyl-1-(((S)-15-(2-((S)-2-methylpyrrolidin-2-yl)-1H-benzo[d]imidazol-4-yl)-3,9,15-trioxo-1-phenyl-2-oxa-4, 10,14-triazapentadecan-8-yl)amino)-1-oxobutan-2-yl)carbamoyl)pyrrolidin-1-yl)-8-oxooct-5-en-4-yl)carbamate]", "values": [{"measurement": "LDH release after OGD", "setting": "primary cortical neurons [1]; 10 nM, 2 h OGD, then 24 h, mean±SD, vehicle 38.0±2.5%", "result": "12.4±3.1", "unit": "%"}, {"measurement": "reduction of OGD-induced cell death vs. vehicle", "setting": "primary cortical neurons [1]; 10 nM, 2 h OGD, then 24 h normal culture", "result": 67, "unit": "%"}, {"measurement": "effect on OGD-induced cell death at low nanomolar concentrations", "setting": "primary cortical neurons [1]; 2 h OGD, then 24 h", "result": "significantly attenuated OGD-induced cell death"}, {"measurement": "protection against OGD at concentrations >100 nM", "setting": "primary cortical neurons [1]", "result": "no additional protection"}, {"measurement": "efficacy vs. veliparib at higher concentrations", "setting": "HT22 cells; 10 μM, LDH at 24 h", "result": "slightly more effective than veliparib"}, {"measurement": "effect on glutamate-induced ferroptosis", "setting": "HT22 cells", "result": "inhibit glutamate-induced ferroptosis"}, {"measurement": "mitochondrial NAD+ stores after OGD", "setting": "primary cortical neurons [2]", "result": "preserve mitochondrial NAD^+ stores"}, {"measurement": "efflux of NAD+ from the mitochondria to the cytosol", "setting": "primary cortical neurons [2]; 10 nM, 24 h after OGD", "result": "prevented efflux of NAD^+ from the mitochondria to the cytosol"}, {"measurement": "PARP1 inhibition compared with untargeted veliparib", "setting": "PARP1 [3]", "result": "similar"}, {"measurement": "PARP1 inhibitory capacity of mitochondria-enriched fractions compared to unconjugated veliparib", "setting": "PARP1 [4]", "result": "greater PARP1 inhibitory capacity"}, {"measurement": "mitochondrial architecture after OGD (STED)", "setting": "primary cortical neurons [5]", "result": "partially preserved"}, {"measurement": "PAR immunoreactivity after OGD vs. vehicle (STED)", "setting": "primary cortical neurons [5]; 1 h", "result": "reduced"}, {"measurement": "PAR immunofluorescence after OGD (confocal)", "setting": "primary cortical neurons [5]", "result": "reduction of PAR immunofluorescence"}, {"measurement": "concentration at which radiation damage was decreased", "setting": "[6]", "result": "≥ 5", "unit": "µM"}, {"measurement": "survival after IR", "setting": "[6]", "result": 90.1, "unit": "%"}, {"measurement": "number of PCR-detectable mtDNA lesions following γ-IR", "setting": "[7]; DNA extracted 4 and 24 h post-IR, vehicle 0.48±0.03", "result": "0.30±0.03"}, {"measurement": "cytotoxicity compared with unconjugated veliparib", "setting": "[8]; P<0.05", "result": "significantly less toxic"}, {"measurement": "concentration at which neurotoxicity (defined as >10% cell death) was seen", "setting": "[8]", "result": 10, "unit": "µM"}, {"measurement": "concentration in mitochondria-enriched fractions", "setting": "[9]", "result": "116±55", "unit": "pmol/10 μg protein"}, {"measurement": "concentration in nuclear-enriched fractions", "setting": "[9]", "result": "29±27", "unit": "pmol/10 μg protein"}]}
{"smiles": "CC1(c2nc3c(C(N)=O)cccc3[nH]2)CCCN1", "note": "(stereo in doubt) [veliparib, 1,2-[(S)-2-methylpyrrolidin-2-yl]-1H-benzimidazole-4-carboxamide, reference compound]", "values": [{"measurement": "protection against OGD at concentrations >100 nM", "setting": "primary cortical neurons [1]", "result": "no additional protection"}, {"measurement": "effect on glutamate-induced ferroptosis", "setting": "HT22 cells", "result": "inhibit glutamate-induced ferroptosis"}, {"measurement": "mitochondrial NAD+ stores after OGD", "setting": "primary cortical neurons [2]", "result": "preserve mitochondrial NAD^+ stores"}, {"measurement": "PAR immunofluorescence after OGD (confocal)", "setting": "primary cortical neurons [5]", "result": "reduction of PAR immunofluorescence"}, {"measurement": "survival after IR", "setting": "[6]", "result": 57.1, "unit": "%"}, {"measurement": "effect on mtDNA lesions compared to vehicle irradiated cells", "setting": "[7]", "result": "no effect"}, {"measurement": "concentration at which neurotoxicity (defined as >10% cell death) was seen", "setting": "[8]", "result": 1, "unit": "µM"}]}
